Measured values taken from patent US20090143388A1, “TREATMENT OF BRAIN DISORDERS” (priority 2007, published 2009).
“Also recorded” adds a separate entry of the source.

Legend:
[1] = test system: MPP^+-induced hydroxyl radical (.OH) in the mitochondria; experiment: MPP+-induced hydroxyl radical (2,3-DHBA) production in sub-mitochondrial particles; type: biochemical; conditions: for increase in the production of 2,3-DHBA (OH production): sub-mitochondrial particles incubated with MPP+ (100 μM); for MPP+-induced 2,3-DHBA (OH adduct of salicylate) production in the mitochondria: irsogladine 0.01-1 mM, MPP+ 100 μM, sub-mitochondrial particles, 30 min
Experimental: FIG. 1. Irsogladine scavenges MPP^+-induced OH from the mitochondria. Sub-mitochondrial particles were incubated with the neurotoxic metabolite of MPTP, 1-methyl-4-phenyl pyridinium ion (MPP^+) and salicylic acid in the presence and absence of irsogladine. The resulting OH adducts of salicylate, 2,3-dihydroxy benzoic acid (2,3-DHBA) was assayed using a HPLC equipped with electrochemical detector.
Irsogladine scavenges MPP^+-induced hydroxyl radical (.OH) in the mitochondria. The oxidative metabolite of MPTP, 1-methyl-4-phenylpyridinium ion (MPP^+) is selectively taken into the dopaminergic neurons through dopamine transporters, and sequestered in the mitochondria.
Preparation of sub-mitochondrial particles and estimation of hydroxyl radical. Mitochondrial P2 fraction was obtained by making a 10% homogenate of the cerebral cortex, with a glass-Teflon homogenizer in 0.32 M sucrose in cold 10 mM potassium phosphate buffer, pH 7.2. The homogenate was centrifuged at 1,000×g for 10 min at 4° C. using a Sorvall centrifuge. The supernatant was centrifuged at 10,000×g for 30 min. The pellet was resuspended in the same volume of ice-cold 50 mM Tris in 10 mM potassium phosphate buffer (pH 7.2) and centrifuged at 10,000×g for 30 min. This step was repeated once. The pellet thus obtained was suspended in the same volume of ice-cold 10 mM potassium phosphate buffer, pH 7.2 and kept overnight at −20° C. The mitochondrial suspension was thawed, and the protein content was estimated.
The .OH adduct of salicylate, 2,3-dihydroxybenzoic acid (DHBA), was assayed employing HPLC-electrochemistry as described earlier. The ex-vivo OH production was tested in sub-mitochondrial particles. Mitochondrial fraction was incubated with MPP^+ (100 μM) and phosphate buffer (0.1 M) for 5 min. Sodium salicylate (0.75 mM) and different concentrations of irsogladine (0.01-1 mM) were added 5 min after the addition of MPP^+ and incubated for 30 min. The reaction was stopped by adding equal amount of ice-cold perchloric acid (0.1 M) containing 0.01% EDTA, kept on ice for 30 min and then centrifuged at 10,000×g for 5 min. The supernatant was injected into the HPLC system for the assay of 2,3-DHBA. Standard solution containing 2,3-DHBA was injected prior to and after the analyses of the samples, and the products formed are expressed as pmol/mg protein/min.

[2] = test system: Balb/c mice; experiment: Striatal DA, DOPAC and HVA by HPLC-electrochemistry in MPTP-treated mice; type: in vivo
Experimental: FIG. 2. Irsogladine reverses MPTP-induced reductions in striatal DA metabolism. Striatal DA (A) and its metabolites, DOPAC (B) and HVA (C) were assayed employing a sensitive HPLC-electrochemical procedure on the 5th day following the administration of MPTP (30 mg/kg; administered twice, 16 h apart, i.p.). Irsogladine (25, 50 and 100 mg/kg, p.o.) was administered for two days at 12 h intervals following the second MPTP injection. Results given are mean±S.E.M., n=6-8 for control groups and 10-12 for MPTP-treated groups (*p<0.05 vs. control; Student's t-test).
(§1) Animals. Adult male Balb/c mice, weighing 20-25 g were used in the present study. They were housed under standard conditions of temperature (22±1° C.), humidity (60±5%) and illumination (12-h light/dark cycle). The experimental protocol met the National Guidelines on the ‘Proper Care and Use of Animals in Laboratory Research’ (Indian National Science Academy, New Delhi, 2000) and was approved by the Animal Ethics Committee of the Institute. The procedures adhered to the NIH Guidelines for the Care and Use of Laboratory Animals.
(§2) Experimental design. The animals were divided into eight groups. The first four groups of animals received either vehicle (0.5% CMC) or different doses of irsogladine (25, 50, and 100 mg/kg). The fifth group of animals was administered with MPTP. The remaining three groups received the two doses of MPTP, and different doses of irsogladine (25, 50, and 100 mg/kg). Each of the control groups consisted of 6-8 animals; while MPTP treated groups consisted of 10-12 animals. The total period of study was 5 days. Each experiment was repeated at least twice on separate days.
(§3) MPTP was dissolved in normal saline and administered intraperitonially (i.p.), twice, 16 h apart, at the dose of 30 mg/kg to mice. The animals received the first injections at 1700 h and the second at 0900 h the next day. Different doses of irsogladine (25, 50, and 100 mg/kg) were suspended in 0.5% sodium CMC and administered to control and MPTP-treated mice. Irsogladine administration started 30 min after the second MPTP injection and continued at an interval of 12 h for the next two days. The volume of injection was 10 μl/g body weight.
(§4) Analysis of biogenic amines by HPLC-electrochemistry. DA, DOPAC, HVA, 5-HT, and 5-HIAA were assayed employing HPLC equipped with an electrochemical detector. Animals were sacrificed on the 5th day by cervical dislocation. Striata were quickly dissected out from the left and right hemispheres of the brain, weighed, sonicated in chilled HClO4 (0.1 M) containing 0.05% EDTA and centrifuged at 12,500×g for 5 min. The supernatant was injected into an HPLC-ECD system (Merck-Hitachi, Germany). The biogenic amines were separated on an ion-pair Ultrasphere RP analytical column (Beckmann, Calif.). The mobile phase contained 8.65 mM heptane sulfonic acid, 0.27 mM EDTA, 13% acetonitrile (HPLC grade), 0.45% triethylamine, and 0.25% phosphoric acid (v/v). The flow rate was 0.7 ml/min and the glassy carbon working electrode was kept at 0.74 V.

[3] = test system: Balb/c mice; experiment: Striatal 5-HT and 5-HIAA levels by HPLC-electrochemistry; type: in vivo; conditions: for level of 5-HIAA, in words / level of serotonin (5-HT), in words: animals treated with MPTP and/or irsogladine; for 5-HIAA (pmol/mg tissue; Mean ± SEM) / 5-HT (pmol/mg tissue; Mean ± SEM): striatum, 5th day
Experimental: Serotonin (5-HT) and its metabolite were assayed employing a sensitive HPLC-electrochemical procedure in the striata of Balb/c mice on 5th day following MPTP treatment (30 mg/kg; administered twice, 16 h apart, i.p.). Irsogladine (25, 50 and 100 mg/kg, p.o.) was administered for two days at 12 h intervals following second MPTP injection. Results given are mean±S.E.M., n=6-8 for control groups and 10-12 for MPTP-treated groups
as §1, §2, §3, §4

[4] = test system: Balb/c mice; experiment: MPTP-induced akinesia; type: in vivo
Experimental: (§5) FIG. 3. Effect of irsogladine on MPTP-induced akinesia (A) and catalepsy (B). Assessment of catalepsy was undertaken 2 h after the treatment of MPTP in Balb/c mice. […] Results given are mean±S.E.M., n=6-8 for control group and 10-12 for MPTP-treated groups (*p<0.01 vs. control; Mann-Whitney Rank Sum test).
as §2, §3
Akinesia. Akinesia was measured by noting the latency in seconds (s) of the animals to move all four limbs and the test was terminated if the latency exceeded 180 s. Each animal was initially acclimatized for 5 min on a wooden elevated platform (40 cm×40 cm×30 cm) used for measuring akinesia in mice. Using a stopwatch, the time taken (s) by the animal to move all the four limbs was recorded. This exercise was repeated five times for each animal.

[5] = test system: Balb/c mice; experiment: MPTP-induced catalepsy; type: in vivo; conditions: for catalepsy (rigidity), drug alone: irsogladine alone, no MPTP
Experimental: as §5, §2, §3
Catalepsy. The term implies the inability of an animal to correct an externally imposed posture. Catalepsy was measured by placing the animals on a flat horizontal surface with both the hind limbs on a square wooden block (3 cm high) and the latency in seconds was measured to move the hind limbs from the block to the ground. The animals were initially acclimatized on the wooden platform.

[6] = test system: Balb/c mice; experiment: Swim-ability (swim score) after MPTP; type: in vivo; conditions: 4th day
Experimental: FIG. 4. Irsogladine attenuates MPTP-induced swim disability in mice. Effect of different doses of Irsogladine on the swimming ability of Balb/c mice was tested in warm water (27±2° C.) on the fourth day following the treatment of MPTP (30 mg/kg, i.p., twice, 16 h apart). Swim-scores were recorded on a performance intensity scale of 0-3 for all the animals for 10 min. Results given are mean±S.E.M., n=6-8 for control groups and 10-12 for MPTP-treated groups (p≦0.05; vs. control; Wilcoxon Signed Rank test for group comparison).
as §2
MPTP was dissolved in normal saline and administered intraperitonially (i.p.), twice, 16 h apart, at the dose of 30 mg/kg to mice. The animals received the first injections at 1700 h and the second at 0900 h the next day. […]

[7] = MPTP alone (30 mg/kg i.p. twice, 16 h apart)
[8] = MPTP 30 mg/kg i.p. twice, 2 h after second injection, compared to saline treated mice
[9] = irsogladine post-treatment in MPTP-treated mice
[10] = irsogladine 25 mg/kg p.o. + MPTP
[11] = irsogladine 25 mg/kg p.o., no MPTP
[12] = irsogladine 50 mg/kg p.o. + MPTP
[13] = irsogladine 50 mg/kg p.o., no MPTP
[14] = irsogladine 100 mg/kg p.o. + MPTP
[15] = irsogladine 100 mg/kg p.o., no MPTP
[16] = highest dose of irsogladine in MPTP-treated mice
[17] = irsogladine 25, 50, 100 mg/kg p.o. in MPTP-treated mice, 2 h after second MPTP injection

C[n+]1ccc(-c2ccccc2)cc1 [MPP^+, 1-methyl-4-phenylpyridinium ion]
increase in the production of 2,3-DHBA (OH production) [1]: 5 fold | increase in the production of 2,3-DHBA (OH production) ([1]; listed as MPP+): about 5 fold

CN1CC=C(c2ccccc2)CC1 [MPTP, 1-methyl-4-phenyl-1,2,3,6-tetrahydropyridine]
depletion of striatal DA ([2]; MPTP 30 mg/kg i.p., 2 times 16 h apart, 5th day, compared to saline-injected mice): 55% | level of 5-HIAA, in words [3]: not altered | level of serotonin (5-HT), in words [3]: not altered | 5-HIAA (pmol/mg tissue; Mean ± SEM) [3, 7]: 2.50 ± 0.24 pmol/mg tissue | 5-HT (pmol/mg tissue; Mean ± SEM) [3, 7]: 2.77 ± 0.31 pmol/mg tissue | akinetic behavior induced by MPTP [4, 8]: significant akinetic | cataleptic behavior induced by MPTP [5, 8]: cataleptic | swim score after MPTP ([6]; MPTP 30 mg/kg i.p. twice, vs sham-treated animals, from the 2nd minute onwards): significant reduction

Nc1nc(N)nc(-c2cc(Cl)ccc2Cl)n1 [Irsogladine, 2,4-diamino-6-(2,5-dichlorophenyl)-s-triazine]
MPP+-induced 2,3-DHBA (OH adduct of salicylate) production in the mitochondria [1]: significantly attenuated | MPP+-induced 2,3-DHBA (OH adduct of salicylate) production in the mitochondria ([1]; listed as irsogladine): dose-dependently scavenged | protection of striatal DA ([2]; irsogladine 25, 50 and 100 mg/kg p.o., b.i.d. for 2 days, post-treatment in MPTP-treated mice, 5th day): significant dose-dependant protection | alteration of striatal DA ([2]; irsogladine alone in control animals): did not cause significant alteration | reversal of MPTP-induced reduction of striatal DOPAC [2, 9]: dose-dependant reversal | reversal of MPTP-induced reduction of striatal HVA [2, 9]: dose-dependant reversal | alteration of striatal DOPAC level ([2]; irsogladine treatment alone): did not cause any significant alterations | alteration of striatal HVA level ([2]; irsogladine treatment alone): did not cause any significant alterations | level of 5-HIAA, in words [3]: not altered | level of serotonin (5-HT), in words [3]: not altered | 5-HIAA (pmol/mg tissue; Mean ± SEM) [3, 10]: 2.11 ± 0.17 pmol/mg tissue | 5-HT (pmol/mg tissue; Mean ± SEM) [3, 10]: 2.64 ± 0.24 pmol/mg tissue | 5-HIAA (pmol/mg tissue; Mean ± SEM) [3, 11]: 2.32 ± 0.31 pmol/mg tissue | 5-HT (pmol/mg tissue; Mean ± SEM) [3, 11]: 2.52 ± 0.34 pmol/mg tissue | 5-HIAA (pmol/mg tissue; Mean ± SEM) [3, 12]: 2.88 ± 0.17 pmol/mg tissue | 5-HT (pmol/mg tissue; Mean ± SEM) [3, 12]: 2.97 ± 0.27 pmol/mg tissue | 5-HIAA (pmol/mg tissue; Mean ± SEM) [3, 13]: 2.99 ± 0.29 pmol/mg tissue | 5-HT (pmol/mg tissue; Mean ± SEM) [3, 13]: 2.96 ± 0.61 pmol/mg tissue | 5-HIAA (pmol/mg tissue; Mean ± SEM) [3, 14]: 2.01 ± 0.09 pmol/mg tissue | 5-HT (pmol/mg tissue; Mean ± SEM) [3, 14]: 2.68 ± 0.24 pmol/mg tissue | 5-HIAA (pmol/mg tissue; Mean ± SEM) [3, 15]: 2.32 ± 0.16 pmol/mg tissue | 5-HT (pmol/mg tissue; Mean ± SEM) [3, 15]: 2.52 ± 0.28 pmol/mg tissue | attenuation of MPTP-induced akinesia, highest dose [4, 16]: complete | attenuation of MPTP-induced akinesia [4, 17]: dose-dependently reduced; also recorded: dose-dependently attenuated | akinesia, drug alone ([4]; irsogladine alone, no MPTP): absent | attenuation of MPTP-induced catalepsy, highest dose [5, 16]: complete | attenuation of MPTP-induced catalepsy [5, 17]: dose-dependently reduced; also recorded: dose-dependently attenuated | catalepsy (rigidity), drug alone [5]: does not cause catalepsy | catalepsy (rigidity), drug alone ([5]; listed as irsladine): absent | improvement of swim score ([6]; irsogladine post-treatment in MPTP-treated mice, dose-dependently): significantly improved
